Data on four compounds can be found in US12545699B2, “Bivalent LECA inhibitors targeting biofilm formation of Pseudomonas aeruginosa” (HELMHOLTZ-ZENTRUM FÜR INFEKTIONSFORSCHUNG GMBH, priority 2019, dated 2026).

Structures are written as SMILES.

Broadly, the IC50 is the midpoint of a concentration-inhibition curve. One may read the Kd as the constant that tells how readily two partners part at equilibrium. A word on the koff: it is the rate constant with which the complex falls apart. Higher therefore signals fast dissociation.

Assay [1] concerns the target T1, LecA (Pseudomonas aeruginosa, UniProt Q05097).
T1 construct: made in house
Put plainly: competitive binding assay based on fluorescence polarisation (FP). As to the method: Binding of ligands to LecA was evaluated in competitive assay based on fluorescence polarisation.
On the technique in general: Polarisation of emitted light reports the rotation of a fluorescent probe.

In assay [2] the target is T1, LecA. Nature of the assay: isothermal titration microcalorimetry (ITC). Conditions: 25° C. It counts as binding. As to the method:
Expression and purification of LecA as well as competitive binding by fluorescence polarization was performed as described by Joachim et al. (Org. Biomol. Chem. 2016). Microcalorimetry was performed using an ITC200 (GE Healthcare) at highest possible LecA concentration (typically 200-400 μM) in the cell and titration of ligand in the same buffer at 25° C.

Assay [3] addresses T1, LecA. Put plainly: surface plasmon resonance (SPR) direct binding to immobilised LecA. How it is done: All experiments were performed on a BIACORE X100 instrument (GE Healthcare) at 25° C. and a flow rate of 10 μL min^−1. […] LecA was dissolved in 10 mM sodium acetate pH 4.5 (100 μg mL^−1) and injected over the activated chip surface on channel 2 (contact time of 540 s) until the response of ˜4000 RU was reached. Excess free amine groups were capped with an injection of 1 M ethanolamine (contact time 540 s). Bivalent compounds were dissolved in 100% DMSO and subsequently diluted to required concentrations in a running buffer (10 mM phosphate buffer pH 7.4, 2.7 mM KCl, 137 mM NaCl, 100 μM CaCl2, 0.05% Tween 20, 5% DMSO). The bivalent analytes were subjected to single-cycle kinetics analyses (contact time of 120 s and dissociation time of 120 s) consisting of injections of the analytes at 0, 10, 50, 100, and 200 nM over the immobilised-LecA. The chip surface was regenerated by 5× injections of 100 μM 4-nitrophenyl-β-D-galactose (contact time of 120 s). KD determination was performed using BIACORE X100 evaluation software (version 2.0) by applying 1:1 binding model to fit the experimental data. • [1] H. E. Gottlieb, V. Kotlyar, A. Nudelman, J. Org. Chem. 1997, 62, 7512-7515. • [2] M. Seligman, J. Biol. Chem. 1952, 195, 239-249. • [3] S. T. Xue, W. Y. He, L. L. Ma, H. Q. Wang, B. Wang, G. H. Zheng, X. Y. Ji, T. Zhang, Y. H. Li, J. D. Jiang, et al., Molecules 2013, 18, 3789-3805. • [4] Y. Li, H. Mo, G. Lian, B. Yu, Carbohydr. Res. 2012, 363, 14-22. • [5] F. Yang, F. Xie, Y. Zhang, Y. Xia, W. Liu, F. Jiang, C. Lam, Y. Qiao, D. Xie, J. Li, et al., Bioorganic Med. Chem. Lett. 2017, 27, 2166-2170. Synthesis Schemes and Results of Biophysical Assays
A general note: Surface plasmon resonance follows binding to a sensor surface in real time, without labels.

The mark [4] stands for this setting: IC50, Table 3, TBS/Ca2+ buffer in presence of 25% DMSO.
[5] abbreviates: Table 5, ITC, 100 μM LecA, 0.5 mM 35, TBS/Ca2+ buffer.
Where [6] appears, read: Table 5, ITC, 110 μM LecA, 1 mM 35, TBS/Ca2+ buffer.
[7] abbreviates: ITC Kd, Table 1, TBS/Ca2+ buffer.

T1 sequence (Q05097 whole entry): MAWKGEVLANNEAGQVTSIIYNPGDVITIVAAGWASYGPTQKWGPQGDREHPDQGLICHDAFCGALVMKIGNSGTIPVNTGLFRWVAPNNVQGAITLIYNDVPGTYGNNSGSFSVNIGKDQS

Regarding `N.N.O=C(CCc1ccc(O[C@@H]2OC(CO)[C@H](O)C(O)C2O)cc1)Nc1ccc(CCc2ccc(NC(=O)CCc3ccc(O[C@@H]4OC(CO)[C@H](O)C(O)C4O)cc3)cc2S(=O)(=O)O)c(S(=O)(=O)O)c1` (some centres unmarked) [Compound 35], the IC50 in assay [1] (setting [4]) is 4 ± 2.4 µM. Binding in assay [2] (Kd, Table 5, ITC, 100 μM LecA, 0.5 mM 35, TBS/Ca2+ buffer) was characterised by a dissociation constant (Kd) of 0.081 µM. The compound further showed a dissociation constant Kd in assay [2] (Kd, Table 5, ITC, 110 μM LecA, 1 mM 35, TBS/Ca2+ buffer) of 0.146 µM. In addition, in assay [2] (setting [5]), the “N (ITC stoichiometry)” value amounted to 0.55, the ΔH was -19.2 kcal/mol and the ΔS is given as −31.8 cal/mol/deg. In assay [2] (setting [6]), the “N (ITC stoichiometry)” value was 0.54, the ΔH was -19.5 kcal/mol and the ΔS is reported as −34.3 cal/mol/deg.

`COc1ccc(C=NNC(=O)c2cccc(OC3OC(CO)C(O)C(O)C3O)c2)cc1` (centres unmarked) [Compound F6m] had an IC50 in assay [1] (FP IC50, Table 1, 20 μM LecA, 10 nM reporter ligand 8, TBS/Ca2+ buffer with 25% DMSO (**)) of 21.6 ± 4.5 µM. The Kd in assay [3] turned out to be 4.9 ± 0.1 µM; in assay [2] (setting [7]), 2.4 ± 1.33 µM.

In turn, `COc1ccc(C=NNC(=O)c2ccc(OC3OC(CO)C(O)C(O)C3O)cc2)cc1` (centres unmarked) [Compound F6p] showed an IC50 in assay [1] (FP IC50, Table 1, 20 μM LecA, 10 nM reporter ligand 8, TBS/Ca2+ buffer with 4% DMSO (*)) of 23.1 µM. Also, the Kd turned out to be 4.8 ± 2.1 µM in assay [3] and 6.11 ± 0.48 µM in assay [2] (setting [7]).

With `O=C(/C=C/c1ccc(O[C@@H]2O[C@H](CO)[C@H](O)[C@H](O)[C@H]2O)cc1)Nc1ccc(OCCOc2ccc(NC(=O)/C=C/c3ccc(O[C@@H]4O[C@H](CO)[C@H](O)[C@H](O)[C@H]4O)cc3)cn2)nc1` [Compound M32], in assay [1] (setting [4]), the 50% inhibitory concentration (IC50) came to 7.5 ± 3.7 µM. Moreover, the koff in assay [3] stood at 0.00165 ± 0.00012 s⁻¹.
